The nature of data set [1]: DRUGMATRIX: beta-Lactamase enzyme inhibition (substrate: Nitrocefin). On the set-up: species or system Bacillus cereus. The following applies: Not Active = under 50% inhibition at 10 µM.
Data set [2] can be described thus: DRUGMATRIX: Glutamate, NMDA, Agonism radioligand binding (ligand: [3H] CGP-39653). Type of data set: cell membranes, Rattus norvegicus, Wistar, Cerebral cortex, Membrane. The following applies: Not Active = under 50% inhibition at 10 µM.
A short description of data set [3]: DRUGMATRIX: Phorbol Ester radioligand binding (ligand: [3H] PDBu). The settings on record: Not Active = under 50% inhibition at 10 µM. Type of data set: cell membranes, Mus musculus, ICR, Brain, Membrane.
Data set [4] is described as follows: DRUGMATRIX: Phosphodiesterase PDE4 enzyme inhibition (substrate: [3H]cAMP + cAMP). The following applies: u-937; Not Active = under 50% inhibition at 10 µM.
The target in the next data set is T1, Caspase-1 (Homo sapiens, UniProt P29466).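 Further: Caspase-1 enzyme inhibition assay with a peptide substrate; in other assays of this panel Not Active means under 50% inhibition at 10 µM.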
T1 sequence (P29466 whole entry): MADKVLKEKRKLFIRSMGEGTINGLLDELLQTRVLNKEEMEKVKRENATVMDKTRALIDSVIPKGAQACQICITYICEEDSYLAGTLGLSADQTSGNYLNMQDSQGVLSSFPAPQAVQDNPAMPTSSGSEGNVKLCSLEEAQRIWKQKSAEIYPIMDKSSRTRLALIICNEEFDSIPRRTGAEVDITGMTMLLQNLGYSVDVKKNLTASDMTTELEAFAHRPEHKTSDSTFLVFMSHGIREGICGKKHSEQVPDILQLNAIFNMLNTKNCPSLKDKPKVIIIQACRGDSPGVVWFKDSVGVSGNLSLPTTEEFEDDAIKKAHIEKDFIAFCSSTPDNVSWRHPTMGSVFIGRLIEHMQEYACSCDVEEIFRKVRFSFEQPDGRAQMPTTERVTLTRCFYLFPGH
On the set-up: species or system Escherichia coli.

For data set [5], the target named is Matrix metalloproteinase-9 (Homo sapiens, UniProt P14780). The experiment in a line: biochemical. Type of data set: cell-based.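 Further: inhibition of isolated MMP-9 enzyme activity toward a synthetic peptide substrate, from the DrugMatrix protease screening panel; in other assays of this panel Not Active means under 50% inhibition at 10 µM.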
Chain of Matrix metalloproteinase-9 (P14780 whole entry): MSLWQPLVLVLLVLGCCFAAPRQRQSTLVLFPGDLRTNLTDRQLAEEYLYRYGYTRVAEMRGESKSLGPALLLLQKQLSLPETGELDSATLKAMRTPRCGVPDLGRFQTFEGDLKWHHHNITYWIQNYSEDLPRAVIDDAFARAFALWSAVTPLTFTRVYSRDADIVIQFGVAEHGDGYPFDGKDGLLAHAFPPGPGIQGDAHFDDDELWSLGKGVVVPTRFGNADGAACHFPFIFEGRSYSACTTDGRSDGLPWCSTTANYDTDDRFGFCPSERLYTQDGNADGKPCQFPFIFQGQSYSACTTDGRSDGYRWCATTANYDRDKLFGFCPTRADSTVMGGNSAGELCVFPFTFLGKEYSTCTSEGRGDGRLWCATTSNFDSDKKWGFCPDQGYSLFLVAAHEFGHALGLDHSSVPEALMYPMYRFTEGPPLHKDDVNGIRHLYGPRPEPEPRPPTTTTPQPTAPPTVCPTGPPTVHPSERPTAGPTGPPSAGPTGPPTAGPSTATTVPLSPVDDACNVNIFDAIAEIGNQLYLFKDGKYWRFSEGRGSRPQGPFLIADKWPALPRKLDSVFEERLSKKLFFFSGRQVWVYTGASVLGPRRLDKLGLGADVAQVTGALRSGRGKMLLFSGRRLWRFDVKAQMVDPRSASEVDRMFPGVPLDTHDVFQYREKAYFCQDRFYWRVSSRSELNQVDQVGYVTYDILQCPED
Data set [6] is described as follows: DRUGMATRIX: Purinergic P2X radioligand binding (ligand: [3H] alpha, beta-Methylene-ATP). The settings on record: Not Active = under 50% inhibition at 10 µM. Type of data set: cell membranes, Oryctolagus cuniculus, New Zealand albino, Urinary bladder, Membrane.
The target of a further data set is T2, Cytochrome P450 1A2 (Homo sapiens, UniProt P05177). Further: in other assays of this panel Not Active means under 50% inhibition at 10 µM.
T2 sequence (P05177 whole entry): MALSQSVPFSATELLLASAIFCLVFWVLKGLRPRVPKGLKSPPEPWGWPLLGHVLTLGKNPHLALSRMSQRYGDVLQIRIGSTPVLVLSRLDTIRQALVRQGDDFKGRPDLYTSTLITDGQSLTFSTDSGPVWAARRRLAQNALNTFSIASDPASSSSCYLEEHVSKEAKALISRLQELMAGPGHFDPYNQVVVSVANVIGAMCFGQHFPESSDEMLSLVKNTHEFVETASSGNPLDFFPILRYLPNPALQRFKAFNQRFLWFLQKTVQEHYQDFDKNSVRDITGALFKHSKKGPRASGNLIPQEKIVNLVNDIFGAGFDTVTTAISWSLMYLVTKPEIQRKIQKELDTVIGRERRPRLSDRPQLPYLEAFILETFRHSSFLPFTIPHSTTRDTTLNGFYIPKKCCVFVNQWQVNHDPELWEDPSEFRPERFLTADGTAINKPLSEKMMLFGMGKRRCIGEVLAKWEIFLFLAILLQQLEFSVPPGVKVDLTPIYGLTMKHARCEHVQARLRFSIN
The following applies: bti-tn-5b1-4.

pIC50: −log10 of the molar value.

For `CC[C@]1(O)CC[C@H]2[C@@H]3CCC4=CCCC[C@@H]4[C@H]3CC[C@@]21C`, the IC50 result (in data set [1]; in data set [2]; in data set [3]; in data set [4]; against Caspase-1; in data set [5]) was “Not Active” each time. Moreover, the IC50 entry (in data set [6]; on Cytochrome P450 1A2) was “Not Active” throughout. Besides, the Ki entry (in data set [1]; in data set [2]; in data set [3]; in data set [4]; in data set [6]; on Cytochrome P450 1A2) was “Not Active” throughout.

For `N[C@@H](Cc1ccc(F)cc1)C(=O)O`, the IC50 result (in data set [1]; in data set [2]; in data set [3]; in data set [4]; on Caspase-1; in data set [5]) was “Not Active” each time. Further, the IC50 entry in data set [6] was “Not Active”. Moreover, the Ki result in data set [1], in data set [2], in data set [3], in data set [4] and in data set [6] was “Not Active” each time.

Take `CCOC(=O)[C@H](CCc1ccccc1)N[C@@H](C)C(=O)N1CCC[C@H]1C(=O)O`: the IC50 entry (in data set [1]; in data set [2]; in data set [3]; in data set [4]; on Caspase-1; in data set [5]) was “Not Active” throughout. Besides, the IC50 entry (in data set [6]; against Cytochrome P450 1A2) was “Not Active” each time. Further, the Ki entry (in data set [1]; in data set [2]; in data set [3]; in data set [4]; in data set [6]; at Cytochrome P450 1A2) was “Not Active” each time.

Take `C=C1/C(=C\C=C2/CCC[C@]3(C)[C@@H]([C@H](C)CCCC(C)C)CC[C@@H]23)C[C@@H](O)C[C@@H]1O` [ALFACALCIDOL]: the IC50 entry (in data set [1]; in data set [2]; in data set [3]; in data set [4]; against Caspase-1; in data set [5]) was “Not Active” each time. Further, the IC50 result (in data set [6]; at Cytochrome P450 1A2) was “Not Active” in each case. The Ki result (in data set [1]; in data set [2]; in data set [3]; in data set [4]; in data set [6]; at Cytochrome P450 1A2) was “Not Active” throughout.

Regarding `C[C@@H]1CC[C@H]2[C@@H](C)C(=O)O[C@@H]3O[C@@]4(C)CC[C@@H]1[C@]32OO4` [ARTEMISININ], the IC50 result (in data set [1]; in data set [2]; in data set [3]; in data set [4]; at Caspase-1; in data set [5]) was “Not Active” throughout. Also, the IC50 entry in data set [6] was “Not Active”. Further, the Ki result in data set [1], in data set [2], in data set [3], in data set [4] and in data set [6] was “Not Active” in each case.

Regarding `[N-]=[N+]=CC(=O)OC[C@H](N)C(=O)O` [AZASERINE], the IC50 entry (in data set [1]; in data set [2]; in data set [3]; in data set [4]; against Caspase-1; in data set [5]) was “Not Active” in each case. The IC50 result (in data set [6]; against Cytochrome P450 1A2) was “Not Active” each time. The Ki result (in data set [1]; in data set [2]; in data set [3]; in data set [4]; in data set [6]; on Cytochrome P450 1A2) was “Not Active” each time.

Consider `CC(C)C[C@H]1C(=O)N2CCC[C@H]2[C@]2(O)O[C@](NC(=O)[C@@H]3C=C4c5cccc6[nH]c(Br)c(c56)C[C@H]4N(C)C3)(C(C)C)C(=O)N12` [BROMOCRIPTINE], for which the IC50 result (in data set [1]; in data set [2]; in data set [3]; in data set [4]; against Caspase-1; in data set [5]) was “Not Active” each time. In addition, the IC50 entry (in data set [6]; against Cytochrome P450 1A2) was “Not Active” in each case. In addition, the Ki result (in data set [1]; in data set [2]; in data set [3]; in data set [4]; in data set [6]; at Cytochrome P450 1A2) was “Not Active” each time.

As for `O=C(/C=C/c1ccc(O)c(O)c1)OCCc1ccccc1` [CAFFEIC ACID PHENETHYL ESTER], the IC50 entry (in data set [1]; in data set [2]; in data set [3]; in data set [4]; on Caspase-1; in data set [5]) was “Not Active” in each case. Moreover, the IC50 result (in data set [6]; against Cytochrome P450 1A2) was “Not Active” each time. Also, the Ki entry (in data set [1]; in data set [2]; in data set [3]; in data set [4]; in data set [6]; at Cytochrome P450 1A2) was “Not Active” each time.

Broadly, the pIC50 is the IC50 on a negative log10 scale, so that one unit is a factor of ten. With `Oc1ccccc1O` [CATECHOL], the IC50 entry (in data set [1]; in data set [2]; in data set [3]; in data set [4]; at Caspase-1; in data set [6]) was “Not Active” each time. Also, at Cytochrome P450 1A2, the IC50 result is “Not Active”. For the same molecule, the Ki result (in data set [1]; in data set [2]; in data set [3]; in data set [4]; in data set [6]; at Cytochrome P450 1A2) was “Not Active” each time. Moreover, the negative logarithm of the IC50 (pIC50) in data set [5] (read-out: IC50) was 4.63.

As to `CN1C(=O)CN=C(c2ccccc2)c2cc(Cl)ccc21` [DIAZEPAM], the IC50 result (in data set [1]; in data set [2]; in data set [3]; in data set [4]; against Caspase-1; in data set [5]) was “Not Active” in each case. The IC50 result in data set [6] was “Not Active”. The Ki result in data set [1], in data set [2], in data set [3], in data set [4] and in data set [6] was “Not Active” throughout.

As to `COc1ccccc1OCC(O)CO` (stereo not drawn) [GUAIFENESIN], the IC50 result (in data set [1]; in data set [2]; in data set [3]; in data set [4]; against Caspase-1; in data set [5]) was “Not Active” throughout. The IC50 result in data set [6] is listed as “Not Active”. The Ki entry in data set [1], in data set [2], in data set [3], in data set [4] and in data set [6] was “Not Active” each time.

As for `COc1ccc2cc(CCC(C)=O)ccc2c1` [NABUMETONE], the IC50 result (in data set [1]; in data set [2]; in data set [3]; in data set [4]; against Caspase-1; in data set [5]) was “Not Active” throughout. Further, the IC50 result in data set [6] is given as “Not Active”. Further, the Ki entry in data set [1], in data set [2], in data set [3], in data set [4] and in data set [6] was “Not Active” throughout.

The values above are taken from ChEMBL document CHEMBL1909046, “DrugMatrix in vitro pharmacology data”.
